For 35 molecules, Ki results are on record in US10131675B2 (Genentech, Inc., priority 2015, dated 2018).

One may read the Ki as the equilibrium dissociation constant of an inhibitor or competing ligand from its target.

Sequence of DLK (Q12852 1-520): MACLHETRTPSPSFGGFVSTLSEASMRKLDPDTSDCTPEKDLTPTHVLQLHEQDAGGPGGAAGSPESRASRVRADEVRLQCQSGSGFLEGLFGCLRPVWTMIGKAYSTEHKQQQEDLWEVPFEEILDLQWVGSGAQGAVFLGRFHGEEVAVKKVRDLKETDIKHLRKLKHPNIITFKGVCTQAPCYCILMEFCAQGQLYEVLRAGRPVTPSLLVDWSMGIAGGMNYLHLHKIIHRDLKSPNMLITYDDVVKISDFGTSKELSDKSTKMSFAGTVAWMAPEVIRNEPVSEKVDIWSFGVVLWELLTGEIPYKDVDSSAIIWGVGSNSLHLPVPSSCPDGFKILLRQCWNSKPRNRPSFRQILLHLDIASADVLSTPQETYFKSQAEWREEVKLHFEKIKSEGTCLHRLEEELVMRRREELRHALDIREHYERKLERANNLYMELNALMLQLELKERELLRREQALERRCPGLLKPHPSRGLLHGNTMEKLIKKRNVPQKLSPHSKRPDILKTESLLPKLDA

This assay addresses DLK (Homo sapiens (Human), UniProt Q12852). As to the kind of experiment: DLK TR-FRET Inhibition Assay. The class given is biochemical. The settings on record: N-terminally GST-tagged DLK (catalytic domain amino acid 1-520), MKK4 K131M substrate, 30 μM ATP; read-out: DLK HTRF Ki. The procedure: DLK kinase reactions (20 μL) containing 5 nM N-terminally GST-tagged DLK (catalytic domain amino acid 1-520) (Carna Bioscience), 40 nM N-terminally HIS tagged MKK4 K131M substrate, and 30 μM ATP in kinase reaction buffer (50 mM HEPES, pH 7.5, 0.01% Triton X-100, 0.01% Bovine γ-Globulins, 2 mM DTT, 10 mM MgCl2 and 1 mM EGTA), and testing compound 1:3 serial diluted starting at 20 uM were incubated at ambient temperature for 60 minutes in 384 well OptiPlate (Perkin Elmer). To quench kinase reactions and detect phosphorylated MKK4, 15 μL of TR-FRET antibody mixture containing 2 nM anti-phosphorylated MKK4 labeled with Europium cryptate (Cisbio) and 23 nM anti-HIS labeled with D2 (Cisbio) in detection buffer (25 mM Tris pH 7.5, 100 mM NaCl, 100 mM EDTA, 0.01% Tween-20, and 200 mM KF) was added to the reaction mixture. The detection mixture was incubated for 3 hours at ambient temperature and the TR-FRET was detected with an EnVision multilabel plate reader (Perkin-Elmer) using the LANCE/DELFIA Dual Enh label from Perkin-Elmer (excitation filter: UV2 (TRF) 320 and emission filters: APC 665 and Europium 615).
(In TR-FRET formats the signal depends on donor and acceptor labels being close together.)
For the molecule `C[C@H]1Cn2c(nc3c(N4CC5CC4C5)nc(-c4cnc(N)nc4)nc32)[C@@H](C)O1` [Example 151], the Ki amounted to 120 nM.
As for `CO[C@@H]1CC2CC1CN2c1nc(-c2cnc(N)nc2)nc2c1nc1n2CCOC1(C)C` (single isomer, unassigned) [Example 140], the figure is 72.7 nM.
The same measure for `CC1(C)OCCn2c1nc1c(N3CC4CC3C4)nc(-c3cnc4[nH]ccc4c3)nc12` [Example 23, 1-(2-Aza-bicyclo[2.1.1]hex-2-yl)-8,8-dimethyl-3-(1H-pyrrolo[2,3-b]pyridin-5-yl)-5,6-dihydro-8H-7-oxa-2,4,4b,9-tetraaza-fluorene]: 57.7 nM; for `CC1(C)OCCCn2c1nc1c(N3CCCC3)nc(-c3cnc(N)nc3)nc12` [Example 134, 5-(6,6-dimethyl-4-(pyrrolidin-1-yl)-6,8,9,10-tetrahydro-[1,4]oxazepino[4,3-e]purin-2-yl)pyrimidin-2-amine]: 210 nM; for `COC1CN(c2nc(-c3cnc4[nH]cc(C(F)(F)F)c4c3)nc3c2nc2n3CCOCC2)C1` [Example 131, 4-(3-methoxyazetidin-1-yl)-2-(3-(trifluoromethyl)-1H-pyrrolo[2,3-b]pyridin-5-yl)-6,7,9,10-tetrahydro-[1,4]oxazepino[4,5-e]purine]: 60.7 nM.
Regarding `CC1(C)OCCn2c1nc1c(N3CC4(CCC4)C3)nc(-c3cnc(N)nc3)nc12` [Example 52, 5-[1-(2-Aza-spiro[3.3]hept-2-yl)-8,8-dimethyl-5,6-dihydro-8H-7-oxa-2,4,4b,9-tetraaza-fluoren-3-yl]-pyrimidin-2-ylamine], the inhibition constant Ki worked out at 515 nM.
The same measure for `CC1(C)OCCn2c1nc1c(N3CC4CC3C4)nc(-c3cnc(N)cn3)cc12` [Example 118, 5-(9-(2-azabicyclo[2.1.1]hexan-2-yl)-1,1-dimethyl-3,4-dihydro-1H-pyrido[3′,4′:4,5]imidazo[2,1-c][1,4]oxazin-7-yl)pyrazin-2-amine]: 1200 nM; for `Cc1n[nH]c2ncc(-c3nc(N4CC5CC4C5)c4nc5n(c4n3)CCOC5(C)C)cc12` [Example 19, 1-(2-Aza-bicyclo[2.1.1]hex-2-yl)-8,8-dimethyl-3-(3-methyl-1H-pyrazolo[3,4-b]pyridin-5-yl)-5,6-dihydro-8H-7-oxa-2,4,4b,9-tetraaza-fluorene]: 493 nM; for `CC1(C)OCCn2c1nc1c(N3CC4CC3C4)nc(-c3cnc(N)c(C(F)(F)F)c3)nc12` [Example 150]: 112 nM.
As for `COC1CN(c2nc(-c3cnc4[nH]cc(C#N)c4c3)nc3c2nc2n3CCOC2(C)C)C1` [Example 41, 5-[1-(3-Methoxy-azetidin-1-yl)-8,8-dimethyl-5,6-dihydro-8H-7-oxa-2,4,4b,9-tetraaza-fluoren-3-yl]-1H-pyrrolo[2,3-b]pyridin-3-carbonitrile], the figure is 30.8 nM; as for `CC1(C)OCCn2c1nc1c(N3CCCC34CCOC4)nc(-c3cnc(N)nc3)nc12` (centres unmarked) [Example 16, 5-[8,8-Dimethyl-1-(7-oxa-1-aza-spiro[4.4]non-1-yl)-5,6-dihydro-8H-7-oxa-2,4,4b,9-tetraaza-fluoren-3-yl]-pyrimidin-2-ylamine], 320 nM; as for `CC1(C)OCCn2c1nc1c(N3CC(F)C3)nc(-c3cnc(N)nc3)nc12` [Example 2, 5-[1-(3-Fluoro-azetidin-1-yl)-8,8-dimethyl-5,6-dihydro-8H-7-oxa-2,4,4b,9-tetraaza-fluoren-3-yl]-pyrimidin-2-ylamine], 391 nM.
As for `CC1(C)OCCn2c1nc1c(N3CC(O)C3)nc(-c3cnc4[nH]cc(Cl)c4c3)nc12` [Example 40, 1-[3-(3-Chloro-1H-pyrrolo[2,3-b]pyridin-5-yl)-8,8-dimethyl-5,6-dihydro-8H-7-oxa-2,4,4b,9-tetraaza-fluoren-1-yl]-azetidin-3-ol], the figure is 5.91 nM; as for `CCN(c1nc(-c2cnc(N)nc2)nc2c1nc1n2CCOC1(C)C)C1CC1` [Example 61, 2-(2-aminopyrimidin-5-yl)-N-cyclopropyl-N-ethyl-6,6-dimethyl-8,9-dihydro-6H-[1,4]oxazino[4,3-e]purin-4-amine], 250 nM; as for `C[C@@H]1CCCN1c1nc(-c2cnc(N)nc2)nc2c1nc1n2CCOC1(C)C` [Example 26, 5-[8,8-Dimethyl-1-((R)-2-methyl-pyrrolidin-1-yl)-5,6-dihydro-8H-7-oxa-2,4,4b,9-tetraaza-fluoren-3-yl]-pyrimidin-2-ylamine], 210 nM.
For the molecule `C[C@@H]1O[C@@H](C)Cn2c1nc1c(N3CC4CC3C4)nc(-c3cnc(N)nc3)nc12` [Example 153], the Ki stood at 261 nM.
On to `Cc1c[nH]c2ncc(-c3nc(C4CC4)c4nc5n(c4n3)CCOC5(C)C)cc12` [Example 121], for which the Ki is 5.48 nM.
With `CC1(C)OCCn2c1nc1c(N3CC4CC3C4)nc(-c3cncc(C(F)(F)F)c3)nc12` [Example 92, 4-(2-azabicyclo[2.1.1]hexan-2-yl)-6,6-dimethyl-2-(5-(trifluoromethyl)pyridin-3-yl)-8,9-dihydro-6H-[1,4]oxazino[4,3-e]purine], the Ki came to 478 nM.
`CC1(C(F)(F)F)OCCn2c1nc1c(N3CC4CC3C4)nc(-c3cnc(N)nc3)nc12` (centres unmarked) [Example 100, 5-(4-(2-azabicyclo[2.1.1]hexan-2-yl)-6-methyl-6-(trifluoromethyl)-8,9-dihydro-6H-[1,4]oxazino[4,3-e]purin-2-yl)pyrimidin-2-amine]: the Ki was determined as 225 nM.
The same measure for `CC1(C)OCCn2c1nc1c(N3CC4CC3C4)nc(-c3cnc(N)c(OC(F)F)c3)nc12` [Example 43, 5-[1-(2-Aza-bicyclo[2.1.1]hex-2-yl)-8,8-dimethyl-5,6-dihydro-8H-7-oxa-2,4,4b,9-tetraaza-fluoren-3-yl]-3-difluoromethoxy-pyridin-2-ylamine]: 41.8 nM.
Take `CC1(C)OCCn2c1nc1c(OC3CCCC3)nc(-c3cnc(N)nc3)nc12` [Example 84, 5-(4-(cyclopentyloxy)-6,6-dimethyl-8,9-dihydro-6H-[1,4]oxazino[4,3-e]purin-2-yl)pyrimidin-2-amine]: the Ki is 357 nM.
As for `CC1(C)OCCn2c1nc1c(C3CC3)nc(-c3cnc(N)nc3)cc12` [Example 120], the figure is 359 nM; as for `CCOc1cc(-c2nc(N3CC4CC3C4)c3nc4n(c3n2)CCOC4(C)C)cnc1N` [Example 21, 5-[1-(2-Aza-bicyclo[2.1.1]hex-2-yl)-8,8-dimethyl-5,6-dihydro-8H-7-oxa-2,4,4b,9-tetraaza-fluoren-3-yl]-3-ethoxy-pyridin-2-ylamine], 279 nM; as for `CC1(C)CN(c2nc(-c3cnc(N)nc3)nc3c2nc2n3CCOC2(C)C)C1` [Example 31, 5-[1-(3,3-Dimethyl-azetidin-1-yl)-8,8-dimethyl-5,6-dihydro-8H-7-oxa-2,4,4b,9-tetraaza-fluoren-3-yl]-pyrimidin-2-ylamine], 424 nM.
As for `CC1(C)OCCn2c1nc1c(N3CC(F)C3)nc(-c3cnc4[nH]cc(C(F)(F)F)c4c3)nc12` [Example 45], the figure is 9.87 nM; as for `CC1(C)OCCn2c1nc1c(N3CC4CC3C4)nc(-c3cnc4ccnn4c3)nc12` [Example 38, 1-(2-Aza-bicyclo[2.1.1]hex-2-yl)-8,8-dimethyl-3-pyrazolo[1,5-a]pyrimidin-6-yl-5,6-dihydro-8H-7-oxa-2,4,4b,9-tetraaza-fluorene], 280 nM.
As for `CC1(C)OCCn2c1nc1c(OC3CCC3)nc(-c3cnc(N)nc3)nc12` [Example 88], the figure is 330 nM; as for `CC1(C)OCCn2c1nc1c(C3CC3)nc(-c3cnc(N)c(C#N)c3)nc12` [Example 126, 2-amino-5-(4-cyclopropyl-6,6-dimethyl-8,9-dihydro-6H-[1,4]oxazino[4,3-e]purin-2-yl)nicotinonitrile], 264 nM.
On to `COc1cc(-c2nc(N3CC4CC3C4)c3nc4n(c3n2)CCOC4(C)C)cnc1N` [Example 57], for which the Ki is 200 nM.
The same measure for `CC1(C)OCCn2c1nc1c(N3CC4CC(F)(F)C4C3)nc(-c3cnc(N)nc3)nc12` (centres unmarked) [Example 10, 5-[1-(6,6-Difluoro-3-aza-bicyclo[3.2.0]hept-3-yl)-8,8-dimethyl-5,6-dihydro-8H-7-oxa-2,4,4b,9-tetraaza-fluoren-3-yl]-pyrimidin-2-ylamine]: 157 nM; for `COC1CN(c2nc(-c3cnc(N)c(OC(F)F)c3)nc3c2nc2n3CCOC2(C)C)C1` [Example 149]: 73.7 nM; for `CC1(C)OCCn2c1nc1c(N3CCC(F)(F)C3)nc(-c3cnc(N)c(OCC4CC4)c3)nc12` [Example 77]: 588 nM.
The same measure for `C[C@@H]1CC[C@H](C)N1c1nc(-c2cnc(N)nc2)nc2c1nc1n2CCOC1(C)C` [Example 55, 5-(4-((2R,5S)-2,5-dimethylpyrrolidin-1-yl)-6,6-dimethyl-8,9-dihydro-6H-[1,4]oxazino[4,3-e]purin-2-yl)pyrimidin-2-amine]: 371 nM; for `CC1(C)OCCn2c1nc1c(C3CC3)nc(-c3cnc(N)c4nc[nH]c34)nc12` [Example 127, 7-(4-cyclopropyl-6,6-dimethyl-8,9-dihydro-6H-[1,4]oxazino[4,3-e]purin-2-yl)-1H-imidazo[4,5-c]pyridin-4-amine]: 150 nM; for `Nc1ncc(-c2nc(N3CC4CC3C4)c3nc4n(c3n2)CCCOC4)cn1` [Example 132, 5-(4-(2-azabicyclo[2.1.1]hexan-2-yl)-6,8,9,10-tetrahydro-[1,4]oxazepino[4,3-e]purin-2-yl)pyrimidin-2-amine]: 281 nM.
